Experiment in all cases: relative viability (nuclei count vs DMSO), 5 days (fraction); higher = more cells survive
Compound in assay [1]: C#Cc1cccc(Nc2ncnc3cc(OCCOC)c(OCCOC)cc23)c1 [Erlotinib] + Nc1ncn([C@H]2C[C@H](O)[C@@H](CO)O2)c(=O)n1 [Decitabine] (partner 2 µM)
An outline of the steps: (§1)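 One day after seeding in 1536-well plates, lung cancer cell lines were dosed by pin tool. Dosing was either single-drug or a fixed anchor-drug dose plus five library-drug doses (not always all listed) in √10 steps. After 5 days, nuclei were stained in one fix-and-stain step and counted on 4× images, and relative viability is the nuclei count of treated wells over that of vehicle wells, given as the median of duplicate plates.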

Compound in assay [2]: O=C(Nc1c[nH]nc1-c1nc2ccc(CN3CCOCC3)cc2[nH]1)NC1CC1 [AT9283] + CCNC(=O)c1noc(-c2cc(C(C)C)c(O)cc2O)c1-c1ccc(CN2CCOCC2)cc1 [Luminespib] (partner 0.01 µM)
An outline of the steps: as §1

Compound in assay [3]: C#Cc1cccc(Nc2ncnc3cc(OCCOC)c(OCCOC)cc23)c1 [Erlotinib] + CC(=O)c1c(C)c2cnc(Nc3ccc(N4CCNCC4)cn3)nc2n(C2CCCC2)c1=O [Palbociclib] (partner 0.5 µM)
An outline of the steps:
as §1

Compound in assay [4]: C#Cc1cccc(Nc2ncnc3cc(OCCOC)c(OCCOC)cc23)c1 [Erlotinib] + CS(=O)(=O)N1CCN(Cc2cc3nc(-c4cccc5[nH]ncc45)nc(N4CCOCC4)c3s2)CC1 [Pictilisib] (partner 1 µM)
An outline of the steps:
as §1

Compound in assay [5]: O=C(Nc1c[nH]nc1-c1nc2ccc(CN3CCOCC3)cc2[nH]1)NC1CC1 [AT9283] + CC(=O)c1c(C)c2cnc(Nc3ccc(N4CCNCC4)cn3)nc2n(C2CCCC2)c1=O [Palbociclib] (partner 0.5 µM)
An outline of the steps: as §1

Take NCI-H441: the relative viability in assay [1] (first compound 0.02 µM) is 0.232; in assay [1] (first compound 0.2 µM) it was 0.26; in assay [1] (first compound 0.6325 µM), 0.215; in assay [1] (first compound 2 µM) it was 0.257; in assay [2] (first compound 0.003 µM) it was 0.432; in assay [2] (first compound 0.03 µM), 0.347. For the same cell line, the relative viability was found to be 0.344 in assay [2] (first compound 0.09487 µM); 0.263 in assay [2] (first compound 0.3 µM); 0.196 in assay [3] (first compound 0.02 µM); 0.212 in assay [3] (first compound 0.2 µM); 0.177 in assay [3] (first compound 0.6325 µM); 0.186 in assay [3] (first compound 2 µM). Besides, the relative viability in assay [4] (first compound 0.02 µM) came out at 0.448; in assay [4] (first compound 0.2 µM), 0.495; in assay [4] (first compound 0.6325 µM), 0.393; in assay [4] (first compound 2 µM), 0.392; in assay [5] (first compound 0.003 µM), 0.247; in assay [5] (first compound 0.03 µM), 0.236. Moreover, the relative viability in assay [5] (first compound 0.09487 µM) came out at 0.205; in assay [5] (first compound 0.3 µM) it was 0.175.
